Patent US20200199174A1, “NOVEL FLUORESCENT LABELING METHOD” (priority 2017, published 2020)

Key:
[1] = literature (Zheng et al. 2014); cited from earlier work
5D4 = assay: Fluorescence change characteristics of fluorophore-DNP pair in presence and absence of 5D4; assay type: biochemical, mouse; details: recombinant 5D4 expressed/purified in E. coli
Procedure: The anti-DNP scFv was expressed and purified as a fusion protein of maltose-binding protein. Escherichia coli BL21 (DE3) was transformed with the pMalc5E vector (pMalc5E-scFv) into which the purification object scFv sequence was introduced, and was cultured overnight on an LB medium plate including 100 μg/mL of ampicillin. A single colony was picked up and cultured overnight in 5 mL of a liquid LB medium including 100 μg/mL of ampicillin, and 1 mL of the resultant culture liquid was transferred to 100 mL of LB medium including 100 μg/mL of ampicillin. Shake culturing was performed at 200 rpm and a temperature of 37° C. until an optical density at 600 nm of 0.8 was reached, and after shake culturing was performed for 30 minutes at 15° C., IPTG was added to give a final concentration of 0.5 mM, and shake culturing was continued overnight. The E. coli were recovered after culturing and were disrupted using a sonicator. […] An eluate was replaced with PBS, and yield was quantified by the Bradford method, after which the eluate was subjected to the measurements described below.
RNA was extracted from the hybridomas of the resultant four clones, and cDNA fragments of the variable regions of the light chains and heavy chains of monoclonal antibodies were obtained by reverse transcription. The cDNA fragments of the variable regions of the light chains and heavy chains were connected via a linker sequence by overlap PCR, and scFv constructs were constructed only from subclones (4E10 and 5D4) derived from wells 1E10 and 3B12, respectively. […] The nucleic acid sequence of the cDNA sequence coding for 5D4 was identified by sequencing (SEQ ID NO: 8), an amino acid sequence determined from the result thereof was analyzed using the IMGT database (http://www.imgt.org/), and a […] region was specified (FIG. 4).
This fluorescence characteristic is similar to that of Cy5 dye, which is widely used in fluorescence imaging in cells. In the presence of 5D4, the fluorescence intensity of 6SiR-DNP was increased by a factor of 98 relative to the fluorescence intensity thereof in the absence of 5D4 (FIG. 6B). When fluorescence quantum yield of 6SiR-DNP in a state in which 6SiR-DNP is bound to 5D4 was measured, the fluorescence quantum yield in the presence of an excess of 5D4 was 0.57. This value for the fluorescence quantum yield is large, and is equal to or greater than that of Cy5 (quantum yield=0.2-0.4) and Cy5.5 (quantum yield=0.24), which are also highly versatile fluorescent dyes in cell labeling experiments (Q. Zheng et al., Ultra-stable organic fluorophores for single-molecule research. Chem Soc Rev 43, 1044-1056 (2014).).

MBP-5D4 = assay: Dissociation rate constant of anti-DNP scFv and probe (stopped-flow, competition with DNP); assay type: binding, mouse; details: 6DCF-DNP and 5D4
Procedure: (§1) A flow channel in a stopped-flow apparatus (Bio-logic) was filled with a pretreatment liquid in which 1% w/v gelatin was dissolved in a phosphate buffer solution (pH 7.4) (PBS), and blocking was performed by leaving the apparatus at room temperature for at least 30 minutes, after which the flow channel was thoroughly washed with Milli-Q water. Using the apparatus, PBS in which MBP-5D4 or a variant thereof at a concentration of 100 nM or less and a probe at a concentration of 1 μM were dissolved, and PBS in which 100 μM DNP as a competitive substance was dissolved were mixed at a 1:1 ratio, and a fluorescence change was measured. At this time, the excitation/fluorescence wavelengths used were 510 nm/529-556 nm for the DCF probe and 650 nm/672-712 nm for the SiR probe, and measurement was performed under conditions of a temperature of 25-27C. A dissociation rate constant koff was calculated by fitting the fluorescence intensity I(t) observed with respect to time t using formula (1) below (FIG. 13 and Table 1).
I(t)=c1·e^−k^off^t+c2·t+c3 Formula (1):
In the formula cn (n=1-3) is a constant.

5D4 (Y96F) = assay: Dissociation rate constant of anti-DNP scFv mutant and probe (stopped-flow, competition with DNP); assay type: binding, mouse
Excerpt: (§2) An amino acid mutation was introduced into an MBP-scFv protein coding region by circular PCR with pMalc5E-5D4 as a template, using a thermostable polymerase KOD Plus (TOYOBO) and forward and reverse primers including a codon modified to correspond to the desired amino acid mutation. The resultant linear PCR product was circularized using a Ligation Kit Version 2 (TAKARA), and an MBP-scFv mutant expression construct was obtained.
as §1, with “A dissociation rate constant koff was calculated by fitting the fluorescence intensity I(t) observed with respect to time t using formula (1) below (FIG. 13 and Table 1).” left out

V94A mutant = assay: Dissociation rate of alanine-scanning mutant and probe (competition experiments with DNP); assay type: binding, mouse
Excerpt: as §2
as §1, with “A dissociation rate constant koff was calculated by fitting the fluorescence intensity I(t) observed with respect to time t using formula (1) below (FIG. 13 and Table 1).” left out

[2] = system: 5D4 fusion protein with TagRFP in HEK293T cells; assay: Expression test of anti-DNP scFv in cultured cells, fluorescent labeling of cytoplasm; assay type: cell-based; details: 1 μM, 10 minutes room temperature, washed with HBS, HEK293T cells expressing TagRFP-5D4
Procedure: HEK293T cells and HeLa cells were cultured in Dulbecco's Modified Eagle's Medium (DMEM, Wako) including 10% fetal bovine serum (FBS, SIGMA) at a carbon dioxide concentration of 5% and a temperature of 37° C.
Gene transfer into HeLa cells was performed using lipofection. For the HeLa cells under culture in a 24-well dish, 25 μL of Opti-MEM I (GIBCO) to which 0.5 μg of a plasmid had been added was added to a mixed solution of 2 μL of Lipofectamine 2000 (Invitrogen) and 25 μL of Opti-MEM I and incubated for five minutes at room temperature. This mixture was added to 500 μL of a medium 90-100% confluent with HEK293T cells and HeLa cells, and culturing was performed at 37° C. at a carbon dioxide concentration of 5%. Cell concentration was diluted to 1/10 5 to 8 hours after transfection, and cells were re-seeded on a glass dish. Cells were subjected to various imaging experiments after 24 hours had passed since transfection.
The 5D4 clone for which a fluorescence-increasing effect of the scFv on the fluorophore-DNP pair was observed was expressed in HEK293T cells as a fusion protein with the fluorescent protein TagRFP, and the state of expression of the scFv in the cells or the propriety of fluorescent labeling of cytoplasm by the fluorophore-DNP pair was evaluated. […]

Compound: CCN1/C(=C/C=C/C=C/C2=[N+](CCCCCC(=O)O)c3ccc(S(=O)(=O)O)cc3C2(C)C)C(C)(C)c2cc(S(=O)(=O)[O-])ccc21 [Cy5]
- quantum yield [1]: 0.2-0.4

Compound: CN(CC(=O)NCCOCCOCCNc1ccc([N+](=O)[O-])cc1[N+](=O)[O-])C(=O)c1ccccc1-c1c2cc(Cl)c(=O)cc-2oc2cc(O)c(Cl)cc12 [DCF-DNP, 2-(2,7-dichloro-6-hydroxy-3-oxo-3H-xanthene-9-yl)-N-(2-((2-(2-(2-((2,4-dinitrophenyl)amino)ethoxy)ethoxy)ethyl)amino)-2-oxoethyl)-N-methylbenzamide]
- increase in fluorescence intensity (5D4): about 10 times

Compound: O=C(NCCOCCOCCNc1ccc([N+](=O)[O-])cc1[N+](=O)[O-])c1ccc(C(=O)O)c(-c2c3cc(Cl)c(=O)cc-3oc3cc(O)c(Cl)cc23)c1 [Probe 6DCF-DNP, 2-(2,7-dichloro-6-hydroxy-3-oxo-3H-xanthene-9-yl)-4-((2-(2-(2-((2,4-dinitrophenyl)amino)ethoxy)ethoxy)ethyl)carbamoyl)benzoate]
- dissociation rate constant (koff) for a fluorescence-OFF state (MBP-5D4): 0.014 s⁻¹
- dissociation rate (5D4 (Y96F); Y96F mutant): 1.1 s⁻¹
- dissociation rate made faster relative to original (5D4 (Y96F); Y96F mutant and 6DCF-DNP vs original 5D4): 100 times
- dissociation rate (V94A mutant; V94A mutant and 6DCF-DNP): 0.31 s⁻¹
- rate increase relative to the original rate (V94A mutant; V94A mutant and 6DCF-DNP vs original 5D4): 25 times

Compound: CC(=O)Oc1cc2c(cc1F)C1(OC(=O)c3ccc(C(=O)NCCOCCOCCNc4ccc([N+](=O)[O-])cc4[N+](=O)[O-])cc31)c1cc(F)c(OC(C)=O)cc1O2 [Probe 6OGdiac-DNP, 6-((2-(2-(2-((2,4-dinitrophenyl)amino)ethoxy)ethoxy)ethyl)carbamoyl)-2′,7′-difluoro-3-oxo-3H-spiro[isobenzofuran-1,9′-xanthene]-3′,6′-diyl diacetate]
- green fluorescence in cells [2]: confirmed only in the cytoplasm of TagRFP-positive HEK293T cells

Compound: Cy5.5
- quantum yield [1]: 0.24
